Test results as given in patent US20220264923A1, “Taste Modifying Product” (Firmenich SA, priority 2011, published 2022).

Assay: Umami effect of pure amide in pure water, panel versus MSG
Assay type: in vivo
Settings: amide at 20ppm in mineral water vs 0.05% MSG; RUI=(umami intensity of the amide)/(umami intensity of MSG)*10; average of 5-10 trained panelists
Protocol: The amides were evaluated at 20ppm in mineral water in comparison with 0.05% monosodium glutamate (MSG). […] The Relative umami intensity (RUI) was calculated as follows: […] The following table gives the average of the notes obtained from all panelists.

SMILES | Relative umami intensity (RUI)
COc1ccc(CCNC(=O)/C=C/c2ccc(OC)c(OC)c2)cc1 [Amide 1, (E)-3-(3,4-dimethoxyphenyl)-N-(4-methoxyphenethyl)acrylamide] | 5.6
COc1ccc(/C=C/C(=O)NCCc2ccccc2)cc1OC [Amide 2] | 3.8
COc1ccc(/C=C/C(=O)NCCc2ccc(OC)c(OC)c2)cc1OC [Amide 3] | 3.3
COc1cccc(CCNC(=O)/C=C/c2ccc(OC)c(OC)c2)c1 [Amide 4, (E)-3-(3,4-dimethoxyphenyl)-N-(3-methoxyphenethyl)acrylamide] | 10.2
COc1ccccc1CCNC(=O)/C=C/c1ccc(OC)c(OC)c1 [Amide 5] | 3.2
COc1cc(CCNC(=O)/C=C/c2ccc(OC)c(OC)c2)cc(OC)c1 [Amide 6] | 3.7
CCOc1cccc(CCNC(=O)/C=C/c2ccc(OC)c(OC)c2)c1 [Amide 7, (E)-3-(3,4-dimethoxyphenyl)-N-(3-ethoxyphenethyl)acrylamide] | 9.8
CCCOc1cccc(CCNC(=O)/C=C/c2ccc(OC)c(OC)c2)c1 [Amide 8, (E)-3-(3,4-dimethoxyphenyl)-N-(3-propoxyphenethyl)acrylamide] | 9.9
COc1ccc(/C=C/C(=O)NCCc2ccc(OC(C)C)cc2)cc1OC [Amide 9, (E)-3-(3,4-dimethoxyphenyl)-N-(4-isopropoxy-phenethyl)acrylamide] | 6.5
CCc1ccc(CCNC(=O)/C=C/c2ccc(OC)c(OC)c2)cc1 [Amide 10, (E)-3-(3,4-dimethoxyphenyl)-N-(4-ethylphenethyl)acrylamide] | 11.5
COc1ccc(/C=C/C(=O)NCCc2ccc(C)c(C)c2)cc1OC [Amide 11, (E)-3-(3,4-dimethoxyphenyl)-N-(3,4-dimethylphenethyl)acrylamide] | 13.3
COc1ccc(/C=C/C(=O)NCCc2ccc(C(C)C)cc2)cc1OC [Amide 12, (E)-3-(3,4-dimethoxyphenyl)-N-(4-isopropylphenethyl)acrylamide] | 5.9
COc1ccc(/C=C/C(=O)NCCc2ccc(OC)c(OC)c2)cc1 [Amide 14] | 3.8
COc1ccc(/C=C/C(=O)NCCc2cccc(C)c2)cc1OC [Amide 17, (E)-3-(3,4-dimethoxyphenyl)-N-(3-methylphenethyl)acrylamide] | 12.1
